US20250223281A1, “ANTIDIABETIC COMPOUNDS AND COMPOSITIONS” (REZUBIO PHARMACEUTICALS CO., LTD, priority 2022, published 2025)

Target: T1, GPR40 (Homo sapiens, UniProt O14842)
T1 construct: expressed in transfected cells; host or cells: HEK293 cells stably expressing GPR40 (Hygromycin selection)
Experiment: IP1 accumulation assay in HEK293 cells stably expressing GPR40
Format: cell-based
Procedure: IP1 accumulation assay was used to evaluate the potency of compounds. HEK293 cells stably expressing GPR40 were cultured in 5% CO2 incubator (ThermoFisher) in maintenance media (Dulbecco's modified Eagle's medium with 4.5 g/L of glucose, 10% fetal bovine serum, 100 μg/mL Hygromycin, and Penicillin (100 U/mL)/Streptomycin (100 μg/mL)) till 100% confluency. Cells were harvested freshly, spun down at 300×g for 5 min, and resuspended in pre-warmed 1× stimulant buffer from Cisbio IP-One HTRF Detection kit (Cisbio). Cell density was adjusted to 2.0×10^6 cells/mL. DMSO was used as blank control and AMG-1638 (CAS #: 1142214-62-7) as positive control. Compounds were prepared at 10 mM in DMSO and 5 nL of 3× serially diluted compounds (10 concentrations) were added to each well of the 384-LDV assay plate (Corning) by using ECHO 550 (Labcyte). Five μL of cells in suspension were transferred into each well by using Multidrop Combi Reagent Dispenser (ThermoFisher). Assay plate was then sealed and incubated at 37° C. for 2 hours. IP-d2 reagent and anti-IP1 reagent were prepared following the manual (Cisbio). Five μL of IP1-d2 and then 5 μL of anti-IP1 antibody was added to each well sequentially. Assay plate was incubated at room temperature for 60 min and then read at 665 nm/615 nm on an Envision plate reader (PerkinElmer). The ratio of values obtained at 665 nm and 615 nm was used for calculation of IP1 accumulation: % Effect=(Ratiosample−Ratioblank)/(RatioAMG-1638−Ratioblank)×100. Dose curve was fitted and EC50 of each compound was calculated by using XLFit.

[1] = IP1 accumulation, HEK293 cells stably expressing GPR40, 2 hours at 37° C., % effect relative to AMG-1638, table of Biological Example 1
[2] = Tables A-1a to A-7b (structure-property relationship), obtained by methods of Biological Example 1
[3] = Table A-8 (additional examples), obtained by methods of Biological Example 1

T1 sequence (O14842 whole entry): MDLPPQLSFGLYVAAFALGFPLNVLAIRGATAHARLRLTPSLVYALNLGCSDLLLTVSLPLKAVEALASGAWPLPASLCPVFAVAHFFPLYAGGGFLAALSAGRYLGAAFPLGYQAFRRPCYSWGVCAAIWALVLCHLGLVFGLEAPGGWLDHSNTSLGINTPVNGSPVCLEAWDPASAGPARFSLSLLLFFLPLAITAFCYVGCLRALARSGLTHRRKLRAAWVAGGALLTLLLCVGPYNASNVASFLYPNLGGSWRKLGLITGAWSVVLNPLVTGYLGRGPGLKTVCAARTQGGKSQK

Row | EC50 [1] | EC50 [2] | EC50 [3] | Structure (SMILES)
1 | 49.4 nM | 49 nM | – | COc1ccc(F)c(-c2ccc(COc3cccc([C@@H](CC(=O)O)C4CC4)c3)cc2CC(C)(C)Cc2cn(CCCCCCCCCCCCCC(=O)NCCN(CCC(=O)NCCN)CCC(=O)NCCN)nn2)c1 [Example 21]
2 | 0.59 nM | – | – | COc1ccc(C(=O)N(CC(C)(C)CCCCCCn2cc(CCCCCCCCCCCCCC(=O)NCCCN(CC(=O)O)CC(=O)O)nn2)c2cccc(C)n2)c(N2CCC(COc3cc([C@@H](CC(=O)O)C4CC4)ccn3)CC2)c1 [Example 206]
3 | 1.25 nM | 1.25 nM | – | COc1ccc(C(=O)N(CC(C)(C)CCn2cc(CCCCCCCCCCCCCCC(=O)NCCCN(CC(=O)O)CC(=O)O)nn2)c2cccc(C)n2)c(N2CCC(COc3cc([C@@H](CC(=O)O)C4CC4)ccn3)CC2)c1 [Example 130]
4 | 0.96 nM | 0.96 nM | – | COc1ccc(F)c(-c2ccc(COc3cccc([C@@H](CC(=O)O)C4CC4)c3)cc2CC(C)(C)Cc2cn(CCCCCCCCCCCCCCCCCC(=O)NCCN(CCC(=O)NCCN)CCC(=O)NCCN)nn2)c1 [Example 23]
5 | 1260 nM | 1260 nM | – | COc1ccc(F)c(-c2ccc(COc3cccc([C@@H](CC(=O)O)C4CC4)c3)cc2CC(C)(C)Cn2cc(CCCCCCCCCCC(=O)NCC[N+](C)(CCC(=O)NCCN)CCC(=O)NCCN)nn2)c1 [Example 59]
6 | 58.4 nM | – | – | COc1ccc(F)c(-c2ccc(COc3cccc([C@@H](CC(=O)O)C4CC4)c3)cc2C(OC)C(C)(C)Cn2cc(CCCCCCCCCCCCCCCCCC(=O)NCC[N+](C)(CCC(=O)NCCN)CCC(=O)NCCN)nn2)c1 (some centres unmarked) [Example 15]
7 | 0.38 nM | 0.38 nM | – | COc1ccc(C(=O)N(CC(C)(C)CCn2cc(CCCCCCCCCCCCCCC(=O)NCCC[N+](C)(CC(=O)[O-])CC(=O)O)nn2)c2cccc(C)n2)c(N2CCC(COc3cc([C@@H](CC(=O)O)C4CC4)ccn3)CC2)c1 (some centres unmarked) [Example 131]
8 | 1.91 nM | – | – | COc1ccc(F)c(-c2ccc(COc3cccc([C@@H](CC(=O)O)C4CC4)c3)cc2C(OCCCCCn2cc(CCCCCCCCCCCCC(=O)NCC[N+](C)(CCC(=O)NCCN)CCC(=O)NCCN)nn2)C(C)(C)C)c1 (some centres unmarked) [Example 34]
9 | 3700 nM | > 3700 nM | – | COc1ccc(F)c(-c2ccc(COc3cccc([C@@H](CC(=O)O)C4CC4)c3)cc2CC(C)(C)Cc2cn(CCCCCCCCCC(=O)NCCN(CCC(=O)NCCN)CCC(=O)NCCN)nn2)c1 [Example 135]
10 | 1360 nM | 1360 nM | – | COc1ccc(C(=O)N(CC(C)(C)CCn2cc(CCCCCCCCC(=O)NCCCN(CC(=O)O)CC(=O)O)nn2)c2cccc(C)n2)c(N2CCC(COc3cc([C@@H](CC(=O)O)C4CC4)ccn3)CC2)c1 [Example 215]
11 | 0.21 nM | 0.21 nM | – | COc1ccc(C(=O)N(CC(C)(C)CCCCCCn2cc(CCCCCCCCCCCCC(=O)NCC[N+](C)(CCC(=O)NCCN)CCC(=O)NCCN)nn2)c2cccc(C)n2)c(N2CCC(COc3cc([C@@H](CC(=O)O)C4CC4)ccn3)CC2)c1 [Example 43]
12 | 618 nM | 618 nM | – | COc1ccc(C(=O)N(CC(C)(C)CCn2cc(CCCCCCCCC(=O)NCCN(CCC(=O)NCCN)CCC(=O)NCCN)nn2)c2cccc(C)n2)c(N2CCC(COc3cc([C@@H](CC(=O)O)C4CC4)ccn3)CC2)c1 [Example 110]
13 | 1.66 nM | 1.66 nM | – | COc1ccc(F)c(-c2ccc(COc3cccc([C@@H](CC(=O)O)C4CC4)c3)cc2CC(C)(C)Cn2cc(CCCCCCCCCCCCCCCCCC(=O)NCC[N+](C)(CCC(=O)NCCN)CCC(=O)NCCN)nn2)c1 [Example 19]
14 | 4.7 nM | – | – | COc1ccc(F)c(-c2ccc(COc3cccc([C@@H](CC(=O)O)C4CC4)c3)cc2CC(C)(C)Cn2cc(CCCCCCCCCCCCCCCCCC(=O)NCC[N+](C)(C)CCCS(=O)(=O)[O-])nn2)c1 [Example 48]
15 | 0.98 nM | – | – | COc1ccc(C(=O)N(CC(C)(C)CCn2cc(CCCCCCCCC=CCCCCCCCCC(=O)NCCC[N+]34CCN(CC3)CC4)nn2)c2cccc(C)n2)c(N2CCC(COc3cc([C@@H](CC(=O)O)C4CC4)ccn3)CC2)c1 [Example 221]
16 | 204 nM | 204 nM | 209 nM | COc1ccc(F)c(-c2ccc(COc3cccc([C@@H](CC(=O)O)C4CC4)c3)cc2CC(C)(C)Cn2cc(CCCCCCCCCC(=O)NCCN(CCC(=O)NCCN)CCC(=O)NCCN)nn2)c1 [Example 191]
17 | 44.6 nM | 45 nM | 45 nM | COc1ccc(C(=O)N(CC(C)(C)CCn2cc(CCCCCCCCCC(=O)NCC[N+](C)(CCC(=O)NCCN)CCC(=O)NCCN)nn2)c2cccc(C)n2)c(N2CCC(COc3cc([C@@H](CC(=O)O)C4CC4)ccn3)CC2)c1 [Example 201]

Row | EC50 [1] | EC50 [2] | EC50 [3] | Structure (SMILES)
18 | > 2700 nM | – | – | COc1ccc(F)c(-c2ccc(COc3cccc([C@@H](CC(=O)O)C4CC4)c3)cc2C(C)(C)c2cn(CCCCCCCCCCCC(=O)NCC[N+](C)(CCC(=O)NCCN)CCC(=O)NCCN)nn2)c1 [Example 87]
19 | > 10000 nM | – | – | COc1ccc(F)c(-c2ccc(COc3cccc([C@@H](CC(=O)O)C4CC4)c3)cc2C(C)(C)c2cn(CCCCCCCCCC(=O)NCC[N+](C)(CCC(=O)NCCN)CCC(=O)NCCN)nn2)c1 [Example 143]
20 | 312 nM | – | – | COc1ccc(F)c(-c2ccc(COc3cccc([C@@H](CC(=O)O)C4CC4)c3)cc2CC(C)(C)Cn2cc(CCCCCCCCCCCCCCC(=O)NCCCN(CC(=O)O)CC(=O)O)nn2)c1 [Example 108]
21 | 16.1 nM | – | – | COc1ccc(F)c(-n2nnc(COc3cccc([C@@H](CC(=O)O)C4CC4)c3)c2CC(C)(C)Cn2cc(CCCCCCCCCCCCCCCC(=O)NCC[N+](C)(CCC(=O)NCCN)CCC(=O)NCCN)nn2)c1 [Example 181]
22 | 1.18 nM | – | – | C[C@H](C(=O)O)[C@H](c1ccc2c(c1)O[C@@H](C1CCN(Cc3cc(-c4cn(CCCCCCCCCCCCCCCCCC(=O)NCC[N+](C)(C)C)nn4)ccc3OC(F)(F)F)CC1)CC2)C1CC1 [Example 35]
23 | 36.8 nM | – | – | COc1ccc(F)c(-c2ccc(COc3cccc([C@@H](CC(=O)O)C4CC4)c3)cc2C(OCCCCCn2cc(CCCCCCCCCCCCC(=O)NCCN(CCC(=O)NCCN)CCC(=O)NCCN)nn2)C(C)(C)C)c1 (some centres unmarked) [Example 33]
24 | 32.7 nM | – | – | COc1ccc(F)c(-c2ccc(COc3cccc([C@@H](CC(=O)O)C4CC4)c3)cc2C(C)(C)c2cn(CCCCCCCCCCCCCCCCCC(=O)NCCN(CCC(=O)NCCN)CCC(=O)NCCN)nn2)c1 [Example 10]
25 | 0.33 nM | 0.33 nM | – | COc1ccc(C(=O)N(CC(C)(C)CCn2cc(CCCCCCCCCCCCCCC(=O)NCCN(CCC(=O)NCCN)CCC(=O)NCCN)nn2)c2cccc(C)n2)c(N2CCC(COc3cc([C@@H](CC(=O)O)C4CC4)ccn3)CC2)c1 [Example 118]
26 | 1.74 nM | – | – | COc1ccc(C(=O)N(CC(C)(C)CCCCCCn2cc(CCCCCCCCCCCCCCCCCC(=O)NCC[N+](C)(C)C)nn2)c2cccc(C)n2)c(N2CCC(COc3cc([C@@H](CC(=O)O)C4CC4)ccn3)CC2)c1 [Example 44]
27 | 4.77 nM | – | – | COc1ccc(F)c(-c2ccc(COc3cccc([C@@H](CC(=O)O)C4CC4)c3)cc2OC(C)(C)COCc2cn(CCCCCCCCCCCCCCCCCC(=O)NCC[N+](C)(CCC(=O)NCCN)CCC(=O)NCCN)nn2)c1 [Example 28]
28 | > 10000 nM | – | – | COc1ccc(F)c(-c2ccc(COc3cccc([C@@H](CC(=O)O)C4CC4)c3)cc2OC(C)(C)Cn2cc(CCCCCCCCC(=O)NCC[N+](C)(CCC(=O)NCCN)CCC(=O)NCCN)nn2)c1 [Example 140]
29 | > 10000 nM | – | > 10000 nM | C[C@H](C(=O)O)[C@H](c1ccc2c(c1)O[C@@H](C1CCN(Cc3cc(-n4cc(COCCOCCOCCOCCOCC(=O)NCC[N+](C)(CCC(=O)NCCN)CCC(=O)NCCN)nn4)ccc3OC(F)(F)F)CC1)CC2)C1CC1 [Example 176]
30 | 143 nM | – | – | COc1ccc(C(=O)N(CC(C)(C)CCCCCCn2cc(CCCCCCC(=O)NCCC[N+](C)(CC(=O)[O-])CC(=O)O)nn2)c2cccc(C)n2)c(N2CCC(COc3cc([C@@H](CC(=O)O)C4CC4)ccn3)CC2)c1 (some centres unmarked) [Example 212]
31 | 9870 nM | 9870 nM | – | COc1ccc(C(=O)N(CC(C)(C)CCn2cc(CCCCCCC(=O)NCCN(CCC(=O)NCCN)CCC(=O)NCCN)nn2)c2cccc(C)n2)c(N2CCC(COc3cc([C@@H](CC(=O)O)C4CC4)ccn3)CC2)c1 [Example 196]
32 | 1050 nM | 1050 nM | – | COc1ccc(F)c(-c2ccc(COc3cccc([C@@H](CC(=O)O)C4CC4)c3)cc2CC(C)(C)Cc2cn(CCCCCCCCCC(=O)NCC[N+](C)(CCC(=O)NCCN)CCC(=O)NCCN)nn2)c1 [Example 96]
33 | 1.21 nM | 1.21 nM | – | C[C@H](C(=O)O)[C@H](c1ccc2c(c1)O[C@@H](C1CCN(Cc3cc(-c4cn(CCCCCCCCCCCCCCCCCC(=O)NCCN(CCC(=O)NCCN)CCC(=O)NCCN)nn4)ccc3OC(F)(F)F)CC1)CC2)C1CC1 [Example 6]
34 | 0.07 nM | – | – | COc1ccc(C(=O)N(CC(C)(C)CCn2cc(CCCCCCCCCCCCCCCCCC(=O)NCCCN(C)CC(=O)NCCN)nn2)c2cccc(C)n2)c(N2CCC(COc3cc([C@@H](CC(=O)O)C4CC4)ccn3)CC2)c1 [Example 150]
